Like-named read-outs stand apart in the source and are kept apart here.
Tests used:
[1] = Optical properties of NIR fluorophores in 100% calf serum; type: physicochemical; details: 100% calf serum supplemented with 50 mM HEPES, pH 7.4
Description: After purification to homogeneity, optical properties of the dyes can be measured in 100% calf serum. Absorbance spectrometry (200 to 870 nm) can be performed using a USB2000 fiber optic spectrometer and CHEM2000-UV-VIS light source with cuvette holder (Ocean Optics, Dunedin, Fla.). Fluorescence spectrometry (200 to 1100 nm) can be performed using a HR2000 fiber optic spectrometer, CUV-ALL-UV 4-way cuvette holder (Ocean Optics), and a 250 mW 770 nm laser diode (Electro Optical Components, Santa Rosa, Calif.). Quantum yield can be measured under conditions of matched absorbance and 770 nm laser excitation, using ICG in DMSO (QY=13%) as the calibration standard.
(§1) Table 2 below summarizes the optical and stability properties of each of these dyes in 100% calf serum (supplemented with 50 mM HEPES, pH 7.4).

[2] = Stability of dyes in 100% calf serum at 37° C.; type: in vitro ADME; details: 100% calf serum supplemented with 50 mM HEPES, pH 7.4
Method: as §1

[3] = In vivo biodistribution and clearance of dyes in rats (FLARE NIR fluorescence imaging); details: IV 40 pmol/g (10 nmol)
Method: The dyes were injected IV into rats at a dose of 40 pmol/g (10 nmol). […] Excitation fluence rate was 5 mW/cm2. Camera integration time was 200 msec. All NIR fluorescence images have identical normalizations. B 1=bladder. Li=Liver. In=Intestines.

[4] = Renal clearance: recovery of dye in urine samples; type: in vivo; details: human, healthy individuals, urine over 12 h, read-out: recovery of the pre-determined dose in urine
Method: Dye MM-19 with net charge of 0 was administered to three groups of subjects of healthy individuals. One group was administered a pre-determined dose of 0.5 mg; one group was administered a pre-determined dose of 2.5 mg; and one group was administered a pre-determined dose of 5.0 mg. Clearance of the dye was measured by quantitative analysis of urine samples obtained by catheterization every hour for the first four hours followed by samples obtained every two hours for the next 8 hours.

in vivo = details: pig, iv
Method: (§2) For in vivo characterization, 40 pmol/g (average 10 nmol) of each dye or conjugate can be injected IV into 250 g Sprague-Dawley rats whose major viscera are surgically exposed. The FLARE™ imaging system can be set to a 760 nm excitation fluence rate of 5 mW/cm2. Simultaneous color video and NIR fluorescence (800 nm) images can be acquired pre-injection, every 1 sec for the first 20 sec then every 1 min for 2 h. Camera acquisition can be held constant (typically 100 msec) and chosen to ensure that all intensity measurements are within the linear range of the 12-bit Orca-AG (Hamamatsu) NIR camera. Blood can be sampled at 0, 1, 2, 5, 10, 15, 30, 60, and 120 min via tail vein. Intensity-time curves for all major organs and tissues can be quantified. The peak fluorescence intensity and time can be determined for each tissue/organ, along with the intensity in each at 1 h post-injection. The experiment can then be repeated in pigs, with measurement of NIR fluorescent intensity of skin and all internal tissues and organs.
(§3) All dyes were injected IV into pigs at a dose of 40 pmol/g (1.6 μmol). […] Excitation fluence rate was 5 mW/cm2. Camera integration time was 200 msec. All NIR fluorescence images had identical normalizations.

[5] = In vivo biodistribution and clearance of dyes in pigs (FLARE NIR fluorescence imaging); details: for Blood half-lives: IV 40 pmol/g, given in the pig paragraph, species not restated; for uptake in liver and intestines: pigs, IV 40 pmol/g (1.6 μmol)
Method: as §2, §3

[6] = in DMSO; cited from earlier work

## CC1(C)C(/C=C/C2=C(Oc3ccc(CCC(=O)[O-])cc3)C(=C/C=C3/N(CCC[N+](C)(C)C)c4ccc(S(=O)(=O)[O-])cc4C3(C)C)/CCC2)=[N+](CCC[N+](C)(C)C)c2ccc(S(=O)(=O)[O-])cc21 [MM-19]
[1]
  Extinction Coefficient: 249,000 M^−1cm^−1
  Peak Absorbance: 773 nm
  Peak Emission: 790 nm
  QY: 13.7%
[2]
  Stability at 4 h, 37° C.: 95%
[3]
  clearance / excretion route: rapid renal excretion into urine
  equilibration between intravascular and extravascular spaces: rapid equilibration between intravascular and extravascular spaces
  liver uptake: no measurable liver uptake
  non-specific uptake / background retention in tissues and organs: extremely low background retention in normal tissues and organs
[4]; dose not named in the sentence (groups 0.5, 2.5, 5.0 mg)
  dose excreted: > 50%
[4]; predetermined dose of 0.5 mg
  dose excreted: > 80%
[4]; predetermined dose of 2.5 mg
  dose excreted: > 60%
In vivo
  half-life: 13.4 min

## CC1(C)C(/C=C/C2=C(Oc3ccc(S(=O)(=O)O)cc3)C(=C/C=C3/N(CCCCS(=O)(=O)O)c4ccc(S(=O)(=O)[O-])cc4C3(C)C)/CCC2)=[N+](CCCCCC(=O)O)c2ccc(S(=O)(=O)O)cc21 [CW-800]
[1]
  Extinction Coefficient: 237,000 M^−1cm^−1
  Peak Absorbance: 786 nm
  Peak Emission: 801 nm
  QY: 14.2%
[2]
  Stability at 4 h, 37° C.: 95%
[3]
  clearance / excretion route: cleared equally by liver and kidneys
  intestinal signal: high intestinal signal
  non-specific uptake / background retention in tissues and organs: relatively high retention in skin and other major tissues and organs
[5]
  Blood half-lives: 30.6 min
  uptake in liver and intestines: very high uptake in pig liver and intestines

## CC1(C)C(/C=C/C=C/C=C/C=C2\N(CCCCS(=O)(=O)[O-])c3ccc4ccccc4c3C2(C)C)=[N+](CCCCS(=O)(=O)[O-])c2ccc3ccccc3c21.[Na+] [ICG]
[1]
  Extinction Coefficient: 121,000 M^−1cm^−1
  Peak Absorbance: 807 nm
  Peak Emission: 822 nm
  QY: 9.3%
[2]
  Stability at 4 h, 37° C.: 96%
[3]
  clearance / excretion route: eventual excretion into bile
  liver uptake: rapid uptake by the liver
[6]
  QY (calibration standard): 13%
[5]
  Blood half-lives: 4.6 min
  uptake in liver and intestines: very high uptake in pig liver and intestines

From patent US10493169B2, “Use of charge-balanced imaging agents for determining renal function” (Beth Israel Deaconess Medical Center, priority 2009, dated 2019)
